Laboratory results from the supplement of paper PMC4862054.

Key:
Conditions in all cases: incubation time: 72 h
BT-474 [1] = assay: normalised response (% of control), CellTox Green; higher = less cell death (100 = DMSO, 0 = benzethonium chloride kill control)
Outline: (§1)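 After 72 h with compound in 384-well plates, breast cancer cell lines seeded as 20 µl suspension were read for CellTox Green fluorescence at 485/520 nm. CellTiter-Glo luminescence was then read after 10 min at room temperature. Compound was present at 5 concentrations in 10-fold steps over a 10,000-fold range set per compound, and plates were normalised to 0.1 % DMSO (100) and a positive kill control (0). Values are normalised signals, each at a single concentration.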

BT-549 [2] = assay: as above
Outline: as §1

CAL-120 [3] = assay: as above
Outline: as §1

CAL-148 [4] = assay: as above
Outline: as §1

CAL-51 [5] = assay: as above
Outline: as §1

CAL-85-1 [6] = assay: as above
Outline: as §1

DU-4475 [7] = assay: as above
Outline: as §1

HCC1143 [8] = assay: as above
Outline: as §1

HCC1599 [9] = assay: as above
Outline: as §1

HDQ-P1 [10] = assay: as above
Outline: as §1

Hs578T [11] = assay: as above
Outline: as §1

MCF-10A [12] = assay: as above
Outline: as §1

MDA-MB-231 [13] = assay: as above
Outline: as §1

MDA-MB-436 [14] = assay: as above
Outline: as §1

MDA-MB-453 [15] = assay: as above
Outline: as §1

MFM-223 [16] = assay: as above
Outline: as §1

BT-474 [17] = assay: normalised response (% of control), CellTiter-Glo; higher = more viable cells (100 = DMSO, 0 = benzethonium chloride kill control)
Description: (§2)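 DSRT, 72 h incubation, CellTox Green / CellTiter-Glo readout. Signal is normalised to DMSO and benzethonium chloride controls. Value is the normalised response at the highest dose.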

BT-549 [18] = assay: as above
Description: as §2

CAL-120 [19] = assay: as above
Description: as §2

CAL-148 [20] = assay: as above
Description: as §2

CAL-51 [21] = assay: as above
Description: as §2

CAL-85-1 [22] = assay: as above
Description: as §2

DU-4475 [23] = assay: as above
Description: as §2

HCC1143 [24] = assay: as above
Description: as §2

HCC1599 [25] = assay: as above
Description: as §2

HCC1937 [26] = assay: as above
Description: as §2

HDQ-P1 [27] = assay: as above
Description: as §2

Hs578T [28] = assay: as above
Description: as §2

MCF-10A [29] = assay: as above
Description: as §2

MDA-MB-231 [30] = assay: as above
Description: as §2

MDA-MB-436 [31] = assay: as above
Description: as §2

MDA-MB-453 [32] = assay: as above
Description: as §2

MDA-MB-468 [33] = assay: as above
Description: as §2

MFM-223 [34] = assay: as above
Description: as §2

SK-BR-3 = assay: as above
Description: as §2

MDA-MB-468 [35] = assay: normalised response (% of control), CellTox Green; higher = less cell death (100 = DMSO, 0 = benzethonium chloride kill control)
Outline: as §1

HCC1937 [36] = assay: as above
Outline: as §1

| SMILES | normalised response (BT-474 [1]) | normalised response (BT-549 [2]) | normalised response (CAL-120 [3]) | normalised response (CAL-148 [4]) | normalised response (CAL-51 [5]) | normalised response (CAL-85-1 [6]) | normalised response (DU-4475 [7]) | normalised response (HCC1143 [8]) | normalised response (HCC1599 [9]) | normalised response (HDQ-P1 [10]) | normalised response (Hs578T [11]) | normalised response (MCF-10A [12]) | normalised response (MDA-MB-231 [13]) | normalised response (MDA-MB-436 [14]) | normalised response (MDA-MB-453 [15]) | normalised response (MFM-223 [16]) | normalised response (BT-474 [17]) | normalised response (BT-549 [18]) | normalised response (CAL-120 [19]) | normalised response (CAL-148 [20]) | normalised response (CAL-51 [21]) | normalised response (CAL-85-1 [22]) | normalised response (DU-4475 [23]) | normalised response (HCC1143 [24]) | normalised response (HCC1599 [25]) | normalised response (HCC1937 [26]) | normalised response (HDQ-P1 [27]) | normalised response (Hs578T [28]) | normalised response (MCF-10A [29]) | normalised response (MDA-MB-231 [30]) | normalised response (MDA-MB-436 [31]) | normalised response (MDA-MB-453 [32]) | normalised response (MDA-MB-468 [33]) | normalised response (MFM-223 [34]) | normalised response (SK-BR-3) | normalised response (MDA-MB-468 [35]) | normalised response (HCC1937 [36]) |
| --- | --- | --- | --- | --- | --- | --- | --- | --- | --- | --- | --- | --- | --- | --- | --- | --- | --- | --- | --- | --- | --- | --- | --- | --- | --- | --- | --- | --- | --- | --- | --- | --- | --- | --- | --- | --- | --- |
| CNNCc1ccc(C(=O)NC(C)C)cc1 [Procarbazine] (10000 nM) | 103% | 94% | 111% | 93% | 110% | 72% | 96.2% | 115% | 98.3% | 99.9% | 108% | 115% | 99% | 81.7% | 60.5% | 94.5% | 98% | 101% | 106% | 107% | 96.3% | 99.3% | 102% | 113% | 96.8% | 103% | 104% | 105% | 109% | 103% | 103% | 102% | 99.4% | 108% | 109% |  |  |
| Nc1nc(OCc2cc(Br)cs2)c2[nH]cnc2n1 [Lomeguatrib] (10000 nM) | 95.9% | 96.6% | 104% | 69.2% | 89.2% | 114% | 97.9% | 98% | 99.2% | 104% | 108% | 75.2% | 112% | 94.1% | 92.8% | 98.5% | 98.9% | 93.5% | 101% | 101% | 67.2% | 97% | 102% | 94.5% | 106% | 103% | 96.5% | 98.7% | 97.4% | 98.5% | 90.6% | 91.3% | 87.1% | 91.8% | 93.9% | 161% |  |
| CN1CCN(CCOc2cc(OC3CCOCC3)c3c(Nc4c(Cl)ccc5c4OCO5)ncnc3c2)CC1 [Saracatinib] (10000 nM) | 42% | 86.2% | 94.5% | 68.4% | 58% | 29.9% | 95.5% | 96.4% | 76.6% | 68.9% | 59.7% | 87.1% | 51.3% |  | 79% | 90.4% | 55% | 57.8% | 66.3% | 75.2% | 59.8% | 27.9% | 106% | 67.1% | 19.4% | 56% | 34.6% | 64.8% | 21.4% | 47.5% | 83% | 63.1% | 67.5% | 64.9% | 46.9% | 125% | 81.7% |
| c1ccc([C@H]2CN3CCSC3=N2)cc1 [Levamisole] (10000 nM) | 101% | 95.8% | 98.4% | 53.5% | 113% | 79.1% | 104% | 106% | 92.5% | 72.4% | 72% | 67.3% |  |  | 71.4% | 95.2% | 102% | 96.5% | 112% | 106% | 119% | 94% | 98.9% | 99.3% | 114% | 100% | 104% | 100% | 110% | 104% | 108% | 106% | 104% | 108% | 110% | 110% | 82.5% |
| CC(C)(C#N)c1cc(Cn2cncn2)cc(C(C)(C)C#N)c1 [Anastrozole] (10000 nM) | 93% | 98.8% | 99.1% | 105% | 100% | 92.9% | 95.3% |  | 106% | 105% | 77.6% | 105% |  | 107% | 88% | 89.5% | 97.5% | 102% | 98.3% | 104% | 98.6% | 104% | 103% | 102% | 99.8% | 101% | 100% | 100% | 101% | 99.9% | 96% | 108% | 105% | 103% | 108% | 116% | 69.8% |
